# Source: PMC7277860, “Viridistratins A−C, Antimicrobial and Cytotoxic Benzo[j]fluoranthenes from Stromata of Annulohypoxylon viridistratum (Hypoxylaceae, Ascomycota)” (Biomolecules, 2020)
# Tests used:
# Pseudomonas aeruginosa = test: MIC serial dilution assay; type: cell-based; details: Pseudomonas aeruginosa PA14; overnight, 37 °C; reference gentamicin 0.1 mg/mL; read-out: Minimum Inhibitory Concentration (MIC)
# Experimental: (§1) Compounds 1, 2, 4 and 5 were dissolved in MeOH (1 mg/mL) for the antimicrobial activity assay, while compound 3 was dissolved in MeOH: DMSO 9+1 (1 mg/mL). The solvents were also used as negative controls.
# (§2) Minimum inhibitory concentrations (MIC) were determined in a serial dilution assay, as described previously; a detailed protocol can be found in the Supporting Information. The compounds (1 mg/mL) were diluted to a range of 66.7 to 0.52 µg/mL and incubated with the test organisms overnight. Inhibition of growth was visually evaluated the next day: the MIC is defined as the lowest concentration of the test compound where no growth of the test organism was observed. Various test organisms of fungal and bacterial origin were tested to cover a broad range of microorganisms. This selection is also being used as a standard test panel in our attempts to discover new anti-infectives, as it represents a broad spectrum of pathogens of clinical interest, as well as sensitive indicator strains (bacteria: Bacillus subtilis, Staphylococcus aureus, Micrococcus luteus, Chromobacterium violaceum, Escherichia coli and Pseudomonas aeruginosa; mycobacteria: Mycolicibacterium smegmatis and fungi: Candida albicans, Schizosaccharomyces pombe, Mucor hiemalis, Pichia anomala and Rhodotorula glutinis).
# (§3) Protocol: Antimicrobial Activi ty Assay
# (§4) The assay was conducted as a minimum inhi bitory concentration (MIC) assay in 96-well ro und-bottom mi crotiter pl ate s usi ng the p ar ameter s su mm ari zed i n T a bl e S 1 and as already described i n [S1].
# (§5) Stocks of the test organi sms were generated by growing the organisms o ver ni ght i n 50 mL shaki ng fl asks fi ll ed wi th 25 mL of the growth medi um at 140 rpm (for media and temperatures see Table S1). If the organisms were well grown the ne xt day, which was checked by occurrence of an optical density (OD)>30 of the suspension (OD600 nm for bacteria, OD548 nm for fungi and M. smegma tis) , aliquots of these were stored i n 1.5 mL reaction tube s in a freezer at −80 °C for up to 12 mo nths . Upon use, aliquots were unth awed and the OD of the suspension measured and adjusted by diluting with the respective growth medi um. OD600 nm w as adj usted to 0.01 and OD548 nm to 0.1.
# (§6) Subse que ntly, 150 µL o f the adjusted suspensions were added to all wells of a 96-wel l microtiter pl ate (one test organi sm per plate). In row A, additional 130 µL of suspensions plus 20 µL of the test compounds (1 mg/mL) and the controls (one compound/column) were added. MeOH as well as MeOH:DMSO 9+1 were used as negative controls, while different positive controls (refer ences) were used for the test organisms (see Tabl e S1). Then, starti ng from row A, 150 µ L of the suspension were transferred to the next row, the contents thoroughly mixed, and 150 µ L transferred to the following row.
# (§7) The remaining 150 µ L after row H were discarded. […]
# (§8) compounds, ranging from 66.7 µg/mL i n row A to 0.52 µg/mL i n row H.
# (§9) The microtiter plates were then incubated overnight o n a microplate shaker at 800 rpm at 30 or 37 °C (see Table S1) and were visually evaluated the next day. The MIC is defined as the lowest concentration were no growth of the test organism was o bserved. A lower MIC thus corresponds to a higher antimicrobial activity of the test compound.
# (§10) Table S1: MIC assay ex per i men t parameters test organism strain No. growth incubation positive control (reference) […]
# Pseudomonas a erugi nosa PA14 MHB 1 37 gent amici n 0.1 mg/mL […]
# (§11) Rhodotorula glutinis DSM10134 MYC 3 30 nyst ati n 1.0 mg/mL
# (§12) 1 MHB: Müller-Hinton Broth (SN X927.1, Ca r l Roth GmbH, Karlsruhe, Germany) 2 7H9+ADC: Middlebrook 7H9 Broth Base + Middlebrook ADC Growth Supplement (SN M0678+M0553, Merck, Darmstadt, Germany)
# (§13) 3 MYC: 1 % w/v, bacto peptone, 1% w/v yeast extract, 2 % w /v glycerol, pH 6.3 [S1] Helaly, S.E.; Ashrafi, S.; Teponno, R.B.; Bernecker, S.; Dababat, A.A.; Maier, W.; Stadler, M.
# (§14) Nematicidal Cyclic Lipodepsipeptides and a Xanthocillin Derivative from a Phaeosphariaceous […]
# [1] = system: Mycolicibacterium smegmatis; test: MIC serial dilution assay; type: cell-based; details: Mycolicibacterium smegmatis ATCC700084; overnight, 37 °C; reference kanamycin 0.1 mg/mL
# Experimental: as §1, §2, §3, §4, §5, §6, §7, §8, §9, §10, §11, §12, §13, §14
# Cytotoxicity assay (MTT) [2] = type: cell-based, human
# Experimental: (§15) Compounds 1−5 were dissolved as described in the previous section. The cytotoxicity assay was initially performed against the cell lines L929 (mouse fibroblasts), as well as KB 3.1 (human papillomavirus-related endocervical adenocarcinoma), as described previously. A detailed protocol, as well as sources of the cell lines, is given in the Supporting Information.
# (§16) After incubating the cell lines with a serial dilution of the test compounds (final range: 37 to 0.6 × 10^−3 µg/mL) for five days, the cells were dyed using 3-(4,5-dimethyl-2-thiazolyl)-2,5-diphenyl-2H-tetrazolium bromide (MTT), which is only converted to its purple formazan derivative by living cells. Then, the intensity of the purple derivative in relation to cells without additive (set to 100% viability) for each concentration of a test compound was quantified. For this, the absorption at 595 nm was measured using a microplate reader to calculate the percentage of cell viability. From this, the half-maximum inhibitory concentration (IC50, in µM) was calculated.
# If an inhibition of cell viability with an IC50 < 50 µM was observed, further cell lines were subjected to the test compounds: PC-3 (human prostate adenocarcinoma), SK-OV-3 (human ovary adenocarcinoma), MCF-7 (human breast adenocarcinoma), A431 (human squamous carcinoma) and A549 (human lung carcinoma).
# (§17) Protocol: Cytotoxicity Assay
# (§18) The ass ay w as co nducted i n 9 6-well flat-bottom mi crotiter plates using the parameters summarised i n Tabl e S 2 and as described in [S2].
# (§19) Cell lines L929 and KB 3.1 were incubated at 37 °C under 10 % CO2 in Gibco™ DMEM medium (Thermo Fisher Scientific, Waltham, MA, USA) supplemented with 10 % FBS. A microtiter plate was filled with 120 µL of this suspension (50,000/mL) in each well.
# (§20) Seperately, another microtiter plate was filled with 100 µL of growth medium in each well. Then, 50 µL of the test compound sol utions (1 mg/mL) were given to wells of the first column in two replicates (one compound per row). C ell s wi thout addi ti ves, Me O H, and MeOH: DMSO 9+1 were used as negative controls. Starting from the first column, 50 µL of the solutions were gradually transferred to the ne xt col umn, the conte nts thoroughl y mi xed, and 50 µ L transferred to the following column. This created a serial dilution of the test compounds r anging from 333 µg/mL to 1.9 ×10−3 µg/mL. The remai ni ng 50 µL after column twelve were discarded. From this microtiter plate, 60 µL of the sol utions from 111 µg/ mL to 1.9×10−3 µg/mL were given to the first plate containing 120 µL of the cel l suspens i ons (i.e. the hi ghest concentrati on 333 µg/mL was not used). T his resulted i n fi nal compound concent rati ons rangi ng from […]
# (§21) After 5 days of incubation under the aforeme ntioned i ncubati on condi ti ons, the half maximum inhibitory concentrati ons (IC 50) were determined using a colorimetric tetrazolium dye MTT assay [S3].
# (§22) For this, 20 µL of a 5 mg/mL solution of 3-( 4 ,5 -dimethyl-2-thi azo l yl)-2 ,5 -di phenyl -2H-tetrazolium bromide (MTT) w ere added to each well and incubated for two hours at 37 °C. Then, the microtiter plate was centrifuged (3,000 r p m, 5 mi n) and the supernat ant remo ved by ho l di ng the pl ate upsi de-do wn and gentle shaking. Afterwards, the wells were washed using 100 µL of phosph ate buffered saline (PBS).
# (§23) The plate was again centrifuged and the supernatant removed as described before. Then, 100 µL of an isopropanol:HCl solution (1L i sopropanol+4 mL HCl 37 % w/v) were added to the wells. After i ncubati ng fo r 10 mi n at ambi ent te mperature, the a bso r pti o n of the well s at 595 nm was measured wi th an I nfi ni te ® 200 Pro microplate reader (TECAN, Männedorf, Schweiz).
# (§24) The absorption values of the cells without additives were averaged and set to 100 % cell viability.
# (§25) Then, t he me ans of absorption of the two compound replicates were set in relation to the blank media.
# These percentage values were plotted a gainst the concentration range (37 µg/mL to 0.6×10 −3 µg/mL). […]
# Cytotoxicity assay (MTT) [3] = type: cell-based
# Experimental: as §15, §16, §17, §18, §19, §20, §21, §22, §23, §24, §25
# These percentage values were plotted a gainst the concentration range (37 µg/mL to 0.6×10 −3 µg/mL).
# The IC50 val ue w as read from the plot ( i n µg/mL) and the uni ts conversed to µM.
# If effects were observed wi th cell lines L929 and KB 3.1 (IC50 < 50 µM), the other cell lines were tested using the same protocol.
# Table S2: Cytotoxicity assay experiment parameters cell line type No. growth medium […]
structure (smiles),measurement,setting,value
"CNC(C)C1CCC(N)C(OC2C(N)CC(N)C(OC3OCC(C)(O)C(NC)C3O)C2O)O1 (stereo not drawn) [gentamicin, reference compound]",MIC,Pseudomonas aeruginosa,0.4 µg/mL
"NC[C@H]1O[C@H](O[C@H]2[C@H](O)[C@@H](O[C@H]3O[C@H](CO)[C@@H](O)[C@H](N)[C@H]3O)[C@H](N)C[C@@H]2N)[C@H](O)[C@@H](O)[C@@H]1O [kanamycin, reference compound]",Minimum Inhibitory Concentration (MIC),[1],3.3 ^4 µg/mL
"C/C(=C\c1csc(C)n1)[C@@H]1C[C@@H]2O[C@]2(C)CCC[C@H](C)[C@H](O)[C@@H](C)C(=O)C(C)(C)[C@@H](O)CC(=O)O1 [epothilone B, reference compound]",IC50 at 5 days,Cytotoxicity assay (MTT) [2]; A431 human squamous AC,0.05 nM
same,IC50 at 5 days,Cytotoxicity assay (MTT) [2]; A549 human lung carcinoma,0.08 nM
same,IC50 at 5 days,Cytotoxicity assay (MTT) [2]; MCF-7 human breast AC,0.12 nM
same,IC50 at 5 days,Cytotoxicity assay (MTT) [2]; PC-3 human prostate AC,0.08 nM
same,IC50 at 5 days,Cytotoxicity assay (MTT) [2]; SK-OV-3 human ovary AC,0.34 nM
same,IC50 at 5 days,Cytotoxicity assay (MTT) [3]; KB 3.1 human endocervical adenocarcinoma,0.79 nM
same,IC50 at 5 days,Cytotoxicity assay (MTT) [3]; L929 mouse fibroblasts,0.06 nM
